Source: ChEMBL document CHEMBL1157535, “2-Aminobenzophenones as a novel class of bradykinin B1 receptor antagonists” (J Med Chem, 2008)

How the values were obtained:
Plasma [1] = assay: Drug level in transgenic rat plasma at 0.12 mg/kg, iv; assay type: ADME, organism-based; design: dose 0.12 mg/kg, route intravenous; details: in vivo
Brain [2] = assay: Drug level in transgenic rat brain at 0.12 mg/kg, iv; assay type: ADME, organism-based; design: dose 0.12 mg/kg, route intravenous; details: in vivo
Spinal cord [3] = assay: Drug level in transgenic rat spinal cord at 0.12 mg/kg, iv; assay type: ADME, organism-based; design: dose 0.12 mg/kg, route intravenous; details: in vivo
Plasma [4] = assay: Drug level in transgenic rat plasma at 1.2 mg/kg, iv; assay type: ADME, organism-based; design: dose 1.2 mg/kg, route intravenous; details: in vivo
Brain [5] = assay: Drug level in transgenic rat brain at 1.2 mg/kg, iv; assay type: ADME, organism-based; design: dose 1.2 mg/kg, route intravenous; details: in vivo
Spinal cord [6] = assay: Drug level in transgenic rat spinal cord at 1.2 mg/kg, iv; assay type: ADME, organism-based; design: dose 1.2 mg/kg, route intravenous; details: in vivo
Plasma [7] = assay: Drug level in transgenic rat plasma at 12 mg/kg, iv; assay type: ADME, organism-based; design: dose 12 mg/kg, route intravenous; details: in vivo
Brain [8] = assay: Drug level in transgenic rat brain at 12 mg/kg, iv; assay type: ADME, organism-based; design: dose 12 mg/kg, route intravenous; details: in vivo
Spinal cord [9] = assay: Drug level in transgenic rat spinal cord at 12 mg/kg, iv; assay type: ADME, organism-based; design: dose 12 mg/kg, route intravenous; details: in vivo
human MDR1 (P-gp) = assay: (§1) Apparent permeability in pig LLC-PK1 cells transfected with human MDR1; assay type: ADME, cell-based, Sus scrofa; details: LLC-PK1
Rattus norvegicus [10] = organism: Rattus norvegicus; details: in vivo
in vivo [11] = details: Sprague-Dawley, rat, po, 10 mg/kg, F
in vivo [12] = details: Sprague-Dawley, rat, iv, 2 mg/kg
in vivo [13] = details: mongrel, dog, iv, 0.25 mg/kg, CL
in vivo [14] = details: mongrel, dog, iv, 0.25 mg/kg, t1/2
in vivo [15] = details: Sprague-Dawley, rat, t1/2
[16] = Metabolic stability in Beagle dog liver microsomes after 30 mins; assay type: ADME, Canis lupus familiaris, Microsome; details: read-out: Stability
[17] = Metabolic stability in human liver microsomes after 30 mins; assay type: ADME, Microsome; details: read-out: Stability
[18] = Metabolic stability in monkey liver microsomes after 30 mins; assay type: ADME, Macaca mulatta, Microsome; details: rhesus monkey, read-out: Stability
[19] = Metabolic stability in Sprague-Dawley rat liver microsomes after 30 mins; assay type: ADME, Microsome; details: read-out: Stability
LLC-PK1 = assay: as §1; assay type: ADME, cell-based, Sus scrofa; details: llc-pk1
Rattus norvegicus [20] = organism: Rattus norvegicus; details: in vivo, po, 10 mg/kg
Canis familiaris = organism: Canis familiaris; details: dog, in vivo, iv, 0.25 mg/kg

Papp (human MDR1 (P-gp)) | t1/2 (Rattus norvegicus [10]) | bioavailability (in vivo [11]) | clearance (in vivo [12]) | clearance (in vivo [13]) | half-life (in vivo [14]) | half-life (in vivo [15]) | t1/2 (Canis familiaris) | Compound | further results
26 ×10⁻⁶ cm/s | 9.7 h | 3% | 43 mL/min/kg | 17 mL/min/kg | 1.9 h | – | – | O=C(Nc1ccc(S(=O)(=O)Nc2ccccc2C(=O)c2ccccc2)cc1)OCC1CCCO1 (stereo not drawn) | concentration (Plasma [1]): 80 nM; concentration (Brain [2]): 70 nM; concentration (Spinal cord [3]): 97 nM; concentration (Plasma [4]): 995 nM; concentration (Brain [5]): 438 nM; concentration (Spinal cord [6]): 597 nM; concentration (Plasma [7]): 13200 nM; concentration (Brain [8]): 5840 nM; concentration (Spinal cord [9]): 9430 nM
27 ×10⁻⁶ cm/s | 0.3 h | 3% | 26 mL/min/kg | 7.5 mL/min/kg | 0.5 h | – | – | CC(=O)Nc1ccc(S(=O)(=O)Nc2ccccc2C(=O)c2ccccc2)cc1 | remaining at 0.5 h [16]: < 10%; remaining at 0.5 h [17]: < 10%; remaining at 0.5 h [18]: < 10%; remaining at 0.5 h [19]: < 10%
34 ×10⁻⁶ cm/s | 14 h | 41% | 29 mL/min/kg | 17 mL/min/kg | 1.5 h | – | – | O=C(NCCCN1CCCCC1)Nc1ccc(S(=O)(=O)Nc2ccccc2C(=O)c2ccccc2)cc1 | –
– | 1.4 h | – | – | – | – | – | 1.4 h | O=C(Nc1ccc(S(=O)(=O)Nc2ccccc2C(=O)c2ccccn2)cc1)OCC1CCCO1 (racemic) | Papp (LLC-PK1): 31 ×10⁻⁶ cm/s; F (Rattus norvegicus [20]): 17%
– | – | – | – | – | – | – | 2.6 h | O=C(Nc1ccc(S(=O)(=O)Nc2ccccc2C(=O)c2ccccn2)cc1)OCC1CCCO1 (stereo in doubt; 28) | –
33 ×10⁻⁶ cm/s | – | – | 40 mL/min/kg | 2.9 mL/min/kg | 2.2 h | 1.7 h | – | O=C(Nc1ccc(S(=O)(=O)Nc2ccccc2C(=O)c2ccccn2)cc1)OCC1CCCO1 (stereo in doubt; 29) | F (Rattus norvegicus [20]): 3%
26 ×10⁻⁶ cm/s | – | – | – | – | – | – | 1.8 h | O=C(Nc1ccc(S(=O)(=O)Nc2ccccc2C(=O)c2ccc(F)cn2)cc1)OCC1CCCO1 (stereo in doubt; 30) | –
– | – | < 1% | 26 mL/min/kg | – | 2.8 h | 1.1 h | – | O=C(Nc1ccc(S(=O)(=O)Nc2ccccc2C(=O)c2ccc(F)cn2)cc1)OCC1CCCO1 (stereo in doubt; 32) | –

Compound | Papp (human MDR1 (P-gp)) | t1/2 (Rattus norvegicus [10]) | bioavailability (in vivo [11]) | clearance (in vivo [12]) | clearance (in vivo [13]) | half-life (in vivo [14]) | half-life (in vivo [15]) | t1/2 (Canis familiaris) | further results
CC(=O)Nc1ccc(S(=O)(=O)Nc2ccccc2C(=O)c2ccccn2)cc1 | – | – | 11% | 24 mL/min/kg | 1.2 mL/min/kg | 1.2 h | 1.2 h | – | –
